The record followed here is patent US9371320B2, “Heterocyclic compound” (TAKEDA PHARMACEUTICAL COMPANY LIMITED, priority 2012, dated 2016).

SMILES strings stand for the structures.

One assay has as its target T1, JAK1 (Homo sapiens, UniProt P23458).
T1 construct: purchased Invitrogen
In words: JAK1 enzyme inhibition test (LANCE method). To be noted: for inhibition at 1 µM: read-out: Inhibitory rate (%) JAK1 1 μM; for inhibition at 10 µM: test compound 10 μM (Ex. 182-220), beside Tyk2 1 μM, read-out: Inhibitory rate (%) JAK1 10 μM. The format is biochemical. An outline of the steps:
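TR-FRET (LANCE) kinase assay using JAK1 at 187.5 ng/mL, ULight-JAK1 peptide at 300 nM and ATP at 150 μM, given as solution concentrations before mixing. Buffer was 50 mM HEPES pH 7.5 with 10 mM MgCl2 and 2 mM DTT, and the reaction ran 1 h at room temperature. Eu anti-phosphotyrosine signal at 665 nm was expressed relative to a no-enzyme well, taken as 100% inhibition.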
For orientation: TR-FRET usually uses a lanthanide donor and a delayed reading to cut background.

For a further assay, the target named is T2, Tyk2 (Homo sapiens, UniProt P29597).
T2 construct: purchased Invitrogen
T2 sequence (P29597 whole entry): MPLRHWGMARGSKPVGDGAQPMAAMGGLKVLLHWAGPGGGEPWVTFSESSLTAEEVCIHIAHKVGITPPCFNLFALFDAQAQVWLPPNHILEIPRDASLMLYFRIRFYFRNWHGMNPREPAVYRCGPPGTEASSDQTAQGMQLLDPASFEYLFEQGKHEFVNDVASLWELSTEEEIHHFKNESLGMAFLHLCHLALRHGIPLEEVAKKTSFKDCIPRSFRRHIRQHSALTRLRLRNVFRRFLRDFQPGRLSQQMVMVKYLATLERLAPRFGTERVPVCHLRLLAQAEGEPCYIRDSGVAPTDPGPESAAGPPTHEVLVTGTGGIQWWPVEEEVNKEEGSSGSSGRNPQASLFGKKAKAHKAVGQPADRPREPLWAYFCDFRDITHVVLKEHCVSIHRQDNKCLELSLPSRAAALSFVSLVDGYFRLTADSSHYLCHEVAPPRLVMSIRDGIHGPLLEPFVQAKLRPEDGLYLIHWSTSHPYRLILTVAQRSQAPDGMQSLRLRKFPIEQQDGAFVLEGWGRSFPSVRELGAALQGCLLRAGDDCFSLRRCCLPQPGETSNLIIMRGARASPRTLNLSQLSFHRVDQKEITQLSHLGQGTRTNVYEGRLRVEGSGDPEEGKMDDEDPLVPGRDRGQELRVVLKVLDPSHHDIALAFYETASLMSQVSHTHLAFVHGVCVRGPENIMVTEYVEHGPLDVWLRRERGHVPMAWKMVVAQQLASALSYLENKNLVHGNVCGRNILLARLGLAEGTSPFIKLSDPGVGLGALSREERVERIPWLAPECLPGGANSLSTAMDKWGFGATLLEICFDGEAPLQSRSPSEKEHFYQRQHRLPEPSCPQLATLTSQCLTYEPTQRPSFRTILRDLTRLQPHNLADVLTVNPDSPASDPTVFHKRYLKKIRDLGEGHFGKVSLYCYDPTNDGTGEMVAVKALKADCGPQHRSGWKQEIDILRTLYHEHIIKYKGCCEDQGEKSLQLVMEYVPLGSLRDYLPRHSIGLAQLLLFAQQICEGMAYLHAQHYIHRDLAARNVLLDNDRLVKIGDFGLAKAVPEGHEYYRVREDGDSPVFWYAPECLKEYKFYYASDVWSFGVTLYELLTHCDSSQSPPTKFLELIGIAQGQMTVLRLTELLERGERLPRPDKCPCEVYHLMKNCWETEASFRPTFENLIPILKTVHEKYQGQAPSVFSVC
Briefly: Tyk2 enzyme inhibition test (LANCE method). It counts as biochemical. Conditions: test compound 1 μM; for inhibition at 1 µM: read-out: Inhibitory rate (%) Tyk2 1 μM. In short, it runs like this: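 Recombinant Tyk2 (375 ng/mL stock) with ULight-JAK1 peptide (300 nM stock) and ATP (30 μM stock) in HEPES pH 7.5/MgCl2/EGTA/DTT buffer, 1 h at room temperature. Stopped with EDTA plus Eu-anti-phosphotyrosine antibody; TR-FRET read at 665 nm after 1 h. No-enzyme wells define 100% inhibition.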

T1 sequence (P23458 whole entry): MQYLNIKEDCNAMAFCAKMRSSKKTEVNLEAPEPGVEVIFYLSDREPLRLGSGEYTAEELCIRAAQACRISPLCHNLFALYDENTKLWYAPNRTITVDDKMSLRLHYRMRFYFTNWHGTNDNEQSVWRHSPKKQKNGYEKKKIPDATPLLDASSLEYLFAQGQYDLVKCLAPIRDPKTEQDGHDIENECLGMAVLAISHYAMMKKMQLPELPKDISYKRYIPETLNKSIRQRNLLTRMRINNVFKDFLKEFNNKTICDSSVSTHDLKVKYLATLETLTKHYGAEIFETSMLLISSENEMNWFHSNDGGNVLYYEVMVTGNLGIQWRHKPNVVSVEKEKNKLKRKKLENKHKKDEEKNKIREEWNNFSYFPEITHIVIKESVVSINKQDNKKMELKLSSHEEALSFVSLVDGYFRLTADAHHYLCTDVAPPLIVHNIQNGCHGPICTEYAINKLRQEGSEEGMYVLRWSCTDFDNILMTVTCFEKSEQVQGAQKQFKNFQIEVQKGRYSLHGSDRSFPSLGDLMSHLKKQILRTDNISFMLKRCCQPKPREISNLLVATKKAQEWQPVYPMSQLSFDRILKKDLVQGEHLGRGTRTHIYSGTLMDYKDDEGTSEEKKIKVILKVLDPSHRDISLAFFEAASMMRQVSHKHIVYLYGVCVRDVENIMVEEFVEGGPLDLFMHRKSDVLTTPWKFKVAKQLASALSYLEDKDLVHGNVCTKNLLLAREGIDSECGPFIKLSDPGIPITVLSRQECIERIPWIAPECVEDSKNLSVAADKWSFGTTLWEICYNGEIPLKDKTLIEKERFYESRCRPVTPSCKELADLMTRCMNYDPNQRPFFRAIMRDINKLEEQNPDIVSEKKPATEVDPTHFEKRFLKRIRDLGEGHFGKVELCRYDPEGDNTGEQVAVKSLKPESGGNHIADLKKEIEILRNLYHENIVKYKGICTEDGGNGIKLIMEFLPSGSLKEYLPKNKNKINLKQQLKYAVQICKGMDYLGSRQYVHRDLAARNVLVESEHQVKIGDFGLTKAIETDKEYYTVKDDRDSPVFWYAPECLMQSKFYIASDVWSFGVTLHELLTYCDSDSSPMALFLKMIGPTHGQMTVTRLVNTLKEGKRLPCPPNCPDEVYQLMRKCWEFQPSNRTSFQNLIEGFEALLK

Take `COc1cccc(-c2nn(C3CCCC3)c3cc[nH]c(=O)c23)c1` [Example 47, 1-cyclopentyl-3-(3-methoxyphenyl)-1,5-dihydro-4H-pyrazolo[4,3-c]pyridin-4-one]: the inhibition at 1 µM was 62% at JAK1 (test compound 1 μM) and 71% on Tyk2.

`NS(=O)(=O)c1ccc(-c2nn(C3CCC(O)CC3)c3cc[nH]c(=O)c23)cc1` (stereo not drawn) [Example 126, 4-(1-(4-hydroxycyclohexyl)-4-oxo-4,5-dihydro-1H-pyrazolo[4,3-c]pyridin-3-yl)benzenesulfonamide]: the “Inhibitory rate (%) JAK1 1 μM” value at JAK1 (test compound 1 μM) amounted to 99%. Besides, the “Inhibitory rate (%) Tyk2 1 μM” value on Tyk2 was found to be 98%.

Consider `NS(=O)(=O)c1cccc(Nc2nn(C3CCCC3)c3c(Br)c[nH]c(=O)c23)c1` [Example 285, 3-((7-bromo-1-cyclopentyl-4-oxo-4,5-dihydro-1H-pyrazolo[4,3-c]pyridin-3-yl)amino)benzenesulfonamide], for which the inhibition at 1 µM on JAK1 (test compound 1 μM) is 70%; on Tyk2, 82%.

Consider `CN(C)Cc1cccc(-c2nn(-c3c(F)cccc3F)c3cc[nH]c(=O)c23)c1` [Example 258, 1-(2,6-difluorophenyl)-3-(3-((dimethylamino)methyl)phenyl)-1,5-dihydro-4H-pyrazolo[4,3-c]pyridin-4-one], for which the inhibition at 1 µM at JAK1 (test compound 1 μM) was 43%; on Tyk2, 88%.

Consider `Nc1ncc(-c2nn(-c3c(F)cccc3F)c3cc[nH]c(=O)c23)cn1` [Example 300, 3-(2-aminopyrimidin-5-yl)-1-(2,6-difluorophenyl)-1,5-dihydro-4H-pyrazolo[4,3-c]pyridin-4-one], for which the inhibition at 1 µM at JAK1 (test compound 1 μM) turned out to be 68%; at Tyk2, 83%.

Consider `O=c1[nH]cc(Cl)c2c1c(-c1cccc(OCCO)c1)nn2-c1c(F)cccc1F` [Example 168, 7-chloro-1-(2,6-difluorophenyl)-3-(3-(2-hydroxyethoxyl)phenyl)-1,5-dihydro-4H-pyrazolo[4,3-c]pyridin-4-one], for which the inhibition at 1 µM on JAK1 (test compound 1 μM) is 46%; at Tyk2, 97%.

Turning to `N#Cc1c[nH]c(=O)c2c(-c3cccc(CC(N)=O)c3)cn(C3CCCC3)c12` [Example 110, 2-(3-(7-cyano-1-cyclopentyl-4-oxo-4,5-dihydro-1H-pyrrolo[3,2-c]pyridin-3-yl)phenyl)acetamide], the inhibition at 1 µM was 46% at JAK1 (test compound 1 μM) and 91% at Tyk2.

For `NC(=O)c1cc(-c2cn(C3CCCC3)c3cc[nH]c(=O)c23)cs1` [Example 4, 4-(1-cyclopentyl-4-oxo-4,5-dihydro-1H-pyrrolo[3,2-c]pyridin-3-yl)thiophene-2-carboxamide], the inhibition at 1 µM on JAK1 (test compound 1 μM) and at Tyk2 was 99% in each case.

On to `NS(=O)(=O)c1ccc(-c2nn(-c3ccccc3Cl)c3cc[nH]c(=O)c23)cc1` [Example 214, 4-(1-(2-chlorophenyl)-4-oxo-4,5-dihydro-1H-pyrazolo[4,3-c]pyridin-3-yl)benzenesulfonamide], for which the inhibition at 10 µM on JAK1 came to 99%. At Tyk2, the inhibition at 1 µM turned out to be 99%.

On to `O=c1[nH]cc(Br)c2c1c(-c1ccc(N3CCOCC3)cc1)nn2-c1c(F)cccc1F` [Example 218, 7-bromo-1-(2,6-difluorophenyl)-3-(4-(morpholin-4-yl)phenyl)-1,5-dihydro-4H-pyrazolo[4,3-c]pyridin-4-one], for which, on JAK1, the inhibition at 10 µM is 85%. Besides, the inhibition at 1 µM on Tyk2 amounted to 99%.

As for `NC(=O)c1cc(-c2nn([C@H]3CC[C@H](O)CC3)c3cc[nH]c(=O)c23)cs1` [Example 183, 4-(1-(trans-4-hydroxycyclohexyl)-4-oxo-4,5-dihydro-1H-pyrazolo[4,3-c]pyridin-3-yl)thiophene-2-carboxamide], on JAK1, the inhibition at 10 µM is 100%. In addition, the inhibition at 1 µM on Tyk2 turned out to be 100%.

`CC(C)(C)n1nc(-c2ccc(N3CCOCC3)cc2)c2c(=O)[nH]ccc21` [Example 243, 1-tert-butyl-3-(4-(morpholin-4-yl)phenyl)-1,5-dihydro-4H-pyrazolo[4,3-c]pyridin-4-one]: the inhibition at 1 µM came to 52% on JAK1 (test compound 1 μM) and 76% at Tyk2.
